{"source": "patent US20130034522A1", "about": "“THERAPIES FOR TREATING HEPATITIS C VIRUS INFECTION” (priority 2010, published 2013)", "key": {"[1]": {"assay": "PK of prodrugs of Compound 1 in rats", "assay_type": "in vivo", "conditions": "oral gavage 3 mg/kg, plasma, FIG. 9", "procedure": "The prodrugs whose PK parameters are to be determined can be formulated as a solution in 0.5% MC/0.5% Tween 80/99% water and administered orally by gavage to rats at a dose of 3 mg/kg. Rats are weighed the day before the study. Rat plasma is sampled predose and at 15, 30 min, 1, 2, 3, 4, 6, 8, 12 and 24 hrs post dose using Instech automatic blood sampling equipment. Blood is collected in tubes containing K2-EDTA and 110 uL plasma are extracted for analysis. Rats are fed ad lib and standard IACUC and SOP protocols are followed. Plasma samples and dose samples are analyzed using LC/MS/MS for both the prodrug compound and the active metabolite. PK parameters for both analytes for each subject are calculated using the measured dose of prodrug."}, "[2]": {"conditions": "male, human, in vivo", "quoted_text": "25 healthy male volunteers were enrolled.\nA dose escalation scheme was used that combined dose doubling and modified Fibonacci to be aggressive in the lower dose range and conservative in the higher dose range.\nA pharmacokinetics analysis was performed using the statistical moment approach."}, "[3]": {"system": "hepatitis C virus (HCV) replicon", "assay": "HCV replicon cell assay", "assay_type": "cell-based", "conditions": "HCV RNA level, 48-hour incubation", "procedure": "Cells containing hepatitis C virus (HCV) replicon were maintained in DMEM containing 10% fetal bovine serum (FBS), 0.25 mg per ml of G418, with appropriate supplements (media A).\nOn day 1, replicon cell monolayer was treated with a trypsin:EDTA mixture, removed, and then media A was diluted into a final concentration of 100,000 cells per ml with 10,000 cells in 100 μl were plated into each well of a 96-well tissue culture plate, and cultured overnight in a tissue culture incubator at 37° C.\nOn day 2, compounds (in 100% DMSO) were serially diluted into DMEM containing 2% FBS, 0.5% DMSO, with appropriate supplements (media B). The final concentration of DMSO was maintained at 0.5% throughout the dilution series.\nMedia on the replicon cell monolayer was removed, and then media B containing various concentrations of compounds was added. […]\nA Taqman real-time RT-PCR quantification assay was set up with two sets of specific primers and probe. […] Total RNA extractants from treated HCV replicon cells was added to the PCR reactions for quantification of both HCV and BVDV RNA in the same PCR well. […] The level of HCV RNA in each well was calculated according to a standard curve run in the same PCR plate. The percentage of inhibition or decrease of HCV RNA level due to compound treatment was calculated using the DMSO or no compound control as 0% of inhibition. […]"}, "[4]": {"system": "HCV", "conditions": "monotherapy, patients; cited from earlier work"}}}
{"molecule": "C[C@@H](N)C(=O)O[C@H]1CC[C@H](N(c2cc(C#CC(C)(C)C)sc2C(=O)O)C(=O)[C@H]2CC[C@H](C)CC2)CC1", "note": "[Compound H]", "values": [{"measurement": "in vivo conversion of prodrug", "setting": "[1]", "result": "converted into the —OH active metabolite"}]}
{"molecule": "CCC[C@H](NC(=O)[C@@H]1[C@H]2CCC[C@H]2CN1C(=O)[C@@H](NC(=O)[C@@H](NC(=O)c1cnccn1)C1CCCCC1)C(C)(C)C)C(=O)C(=O)NC1CC1", "note": "[VX-950]", "values": [{"measurement": "eliminated unchanged in the urine", "setting": "[2]", "result": "Less than 2%"}, {"measurement": "IC50", "setting": "[3]", "result": 0.24, "unit": "µg/mL"}, {"measurement": "IC90", "setting": "[3]", "result": 0.476, "unit": "µg/mL"}]}
{"molecule": "interferon alfa", "values": [{"measurement": "long term remission, fraction of cases", "setting": "[4]", "result": "~25", "unit": "%"}]}
